In patent publication US20030199584A1, “Reduction of hair growth” (priority 2002, published 2003):
Read-outs that look alike come from different tables or passages of the source.

How the values were obtained:
[1] = In vitro diffusion (Franz) skin penetration assay, Protocol 1, 14C-DFMO through hamster skin; format: in vitro ADME, Golden, Syrian hamsters
Source text: (§1) An in vitro diffusion assay was established based on that reported by Franz. Dorsal skin from Golden, Syrian hamsters or Hartley guinea pigs is clipped with electric clippers, trimmed to the appropriate size and placed in a glass diffusion chamber. The receptor fluid consisted of phosphate buffered saline, an isotonic solution for maintaining cell viability and 0.1% sodium azide, a preservative and was placed in the lower chamber of the diffusion apparatus such that the level of the receptor fluid was in parallel with the mounted skin. After equilibration at 37° C. for at least 30 minutes, 10 μl or 20 μl of the test or control formulation containing equal amounts of DFMO were added to the surface of the skin and gently spread over the entire surface with a glass stirring rod. A radiotracer amount of 14C-DFMO (0.5-1 microCurie per diffusion chamber) was used in the formulations to assess DFMO penetration. Penetration of DFMO was determined by removing an aliquot (400 μL) periodically throughout the course of the experiment, and quantitating radioactivity using liquid scintillation.

[2] = In vitro diffusion skin penetration assay of DFMO, skin species not named; format: in vitro ADME, Golden, Syrian hamsters or Hartley guinea pigs; conditions: for Fold-Enhancement DDP/Control: DDP 10%; for % Applied Dose of DFMO penetrated: cream formulation 1 with or without DDP 10%
Source text: as §1

[3] = format: in vitro ADME; conditions: 1 %
Description: DFMO skin penetration was assessed using a modified protocol of the Franz diffusion assay. In this experiment either the SP33 formulation (without DFMO) or the SP33 formulation prepared with dipropylene glycol dimethylether (DPGDME) again with out DFMO was applied to the skin for […]. The formulations were then removed from the skins' surfaces, which were dried with a cotton swab. The hydroalcoholic formulation 1—containing 1% DFMO with radiotracer ^14C-DFMO—was applied to the skin and gently spread over the surface with a glass, stirring rod. Aliquots of the receptor fluid were removed at 3, 6 and 24 hours after DFMO application and penetration was determined using liquid scintillation. As shown in Table 6 enhancement of DFMO penetration through the skin occurred when dipropylene glycol […] was substituted for dipropylene glycol.

[4] = In vitro skin penetration assay, Protocol 2 (skin pretreated 15 minutes with formulation without DFMO); format: in vitro ADME, Golden, Syrian hamsters or Hartley guinea pigs; conditions: Tables 9 and 10
Source text: as §1
This procedure is similar to that described in Protocol 1 with the exception that prior to the application of radiolabeled DFMO, the skin surfaces received 1 ml of the formulation without DFMO. After 15 minutes the formulation was removed and the surface of the skin was gently dried with a cotton swab. […]

[5] = DFMO skin penetration after overnight pretreatment of the skin with fatty acid; format: in vitro ADME; conditions: skin pretreated overnight; DFMO in hydroalcoholic formulation; receptor fluid measured hourly over eight hours (FIG. 1, FIG. 2)
Source text: as §1
Further confirmation of the cis fatty acid action on skin penetration was obtained by pretreating the skin overnight with oleic acid or elaidic acid. The following day DFMO was applied to the surface of the skin in the hydroalcoholic formulation.

In the case of `CC12CCC(CC1)C(C)(C)O2` [Cineole, 1,8-cineole], the “Fold Enhancement of DFMO penetration” value ([1]; Golden Syrian, hamster, 10 %) is reported as 1.91 ± .51 fold.

For `CCCCCCCCCCCCN1CCCC1=O` [DDP, 1-dodecyl-2-pyrrolidanone], the “Fold-Enhancement DDP/Control” value ([2]; 2 hrs) was 0.41 fold, the “% Applied Dose of DFMO penetrated” value ([2]; 2 hrs) was 0.15 ± .01 % Applied Dose and the “Fold-Enhancement DDP/Control” value ([2]; 4 hrs) was 0.91 fold. For the same compound, the “% Applied Dose of DFMO penetrated” value ([2]; 4 hrs) was 0.52 ± .08 % Applied Dose, the “Fold-Enhancement DDP/Control” value ([2]; 6 hrs) was 2.00 fold and the “% Applied Dose of DFMO penetrated” value ([2]; 6 hrs) was 1.26 ± .24 % Applied Dose. The “Fold-Enhancement DDP/Control” value ([2]; 24 hrs) was 5.11 fold, the “% Applied Dose of DFMO penetrated” value ([2]; 24 hrs) was 9.31 ± 1.38 % Applied Dose and the “Increase in skin penetration by DFMO” value ([2]; DDP 10% in cream base Formulation-1) was no more than 5 fold.

With `COCC(C)OCC(C)OC` (centres unmarked) [DPGDME, dipropylene glycol dimethylether] the “% Applied Dose of DFMO penetrated” value ([3]; 3 h) was 7.71 ± 3.1 % Applied Dose, the Fold-Enhancement ([3]; 3 h) was 4.64 fold and the “% Applied Dose of DFMO penetrated” value ([3]; 6 h) was 9.55 ± 3.68 % Applied Dose. The Fold-Enhancement ([3]; 6 h) was 3.93 fold, the “% Applied Dose of DFMO penetrated” value ([3]; 24 h) was 10.85 ± 3.8 % Applied Dose and the Fold-Enhancement ([3]; 24 h) was 3.02 fold.

In the case of `CCCCCCCCCCCCCC(=O)OC(C)C` [IPM, isopropyl myristate], the “Effect on penetration of DFMO through the skin (in words)” value [4] is reported as “significantly increased the penetration of DFMO through the skin”.

For `CC(C)CCCCCCCCCCCCCCCOC(=O)CCCCCCCCCCCCCCC(C)C` [Isostearyl Isosterate, isostearyl isostearate], the “Effect on penetration of DFMO through the skin (in words)” value [4] was “significantly increased the penetration of DFMO through the skin”.

With `CC(C)[C@@H]1CC[C@@H](C)CC1=O` [Menthone] the “Fold Enhancement of DFMO penetration” value ([1]; Golden Syrian, hamster, 10 %) was 1.99 ± .40 fold.

In the case of `CCCCCCCC/C=C\CCCCCCCC(=O)O` [Oleic Acid], the “Effect on DFMO skin penetration (in words)” value [1] is reported as “increase in skin penetration” and the “Fold Enhancement of DFMO penetration” value ([1]; Golden Syrian, hamster, 10 %) is reported as 2.85 ± .76 fold.

With `CCCCCCCCCCC/C=C\CCCCC(=O)O` [Petroselenic Acid] the “Fold Enhancement of DFMO penetration” value [1] was 1.40 ± 1.5 fold.

In the case of `CCCCCCCC/C=C/CCCCCCCC(=O)O` [elaidic acid], the “Enhancement of DFMO skin penetration after pretreatment” value [5] is reported as “no increase in skin penetration of DFMO” and the “Effect on DFMO skin penetration (in words)” value [1] is reported as “devoid of DFMO penetration enhancing properties”.

With Capric/Caprylic Triglyceride [Captex] the “Effect on DFMO skin penetration (in words)” value [2] was “increase in DFMO skin penetration”.

For Tween-20, the “Fold Enhancement of DFMO penetration” value ([1]; Tween derivative 5% in Hydroalcoholic Formulation 1, hamster skin) was 1.54 ± .47 fold.

In the case of Tween-40, the “Fold Enhancement of DFMO penetration” value [1] is reported as 3.07 ± 1.65 fold.

For Tween-80, the “Fold Enhancement of DFMO penetration” value [1] was 0.502 ± .14 fold and the “Reduction in DFMO penetration” value [1] was roughly 50%.
